We go through three compounds from PMC4457528, “Identification of Novel Small Molecule Inhibitors of Oncogenic RET Kinase” (PLoS ONE, 2015).

Read-outs that look alike come from different tables or passages of the source.

Holding throughout (assay): KinomeScan kinase panel, single concentration 10 µM
What all share (type): binding

The target in assay [1] is T1, KinomeScan kinase panel (Homo sapiens, UniProt Q8NI60).
T1 construct: purchased DiscoveRx (KinomeScan)
To be noted: ADCK3, 10 µM; read-out: score (%).

The target in assay [2] is T2, KinomeScan kinase panel (Homo sapiens, UniProt Q13237).
T2 construct: purchased DiscoveRx (KinomeScan)
T2 sequence (Q13237 1-762): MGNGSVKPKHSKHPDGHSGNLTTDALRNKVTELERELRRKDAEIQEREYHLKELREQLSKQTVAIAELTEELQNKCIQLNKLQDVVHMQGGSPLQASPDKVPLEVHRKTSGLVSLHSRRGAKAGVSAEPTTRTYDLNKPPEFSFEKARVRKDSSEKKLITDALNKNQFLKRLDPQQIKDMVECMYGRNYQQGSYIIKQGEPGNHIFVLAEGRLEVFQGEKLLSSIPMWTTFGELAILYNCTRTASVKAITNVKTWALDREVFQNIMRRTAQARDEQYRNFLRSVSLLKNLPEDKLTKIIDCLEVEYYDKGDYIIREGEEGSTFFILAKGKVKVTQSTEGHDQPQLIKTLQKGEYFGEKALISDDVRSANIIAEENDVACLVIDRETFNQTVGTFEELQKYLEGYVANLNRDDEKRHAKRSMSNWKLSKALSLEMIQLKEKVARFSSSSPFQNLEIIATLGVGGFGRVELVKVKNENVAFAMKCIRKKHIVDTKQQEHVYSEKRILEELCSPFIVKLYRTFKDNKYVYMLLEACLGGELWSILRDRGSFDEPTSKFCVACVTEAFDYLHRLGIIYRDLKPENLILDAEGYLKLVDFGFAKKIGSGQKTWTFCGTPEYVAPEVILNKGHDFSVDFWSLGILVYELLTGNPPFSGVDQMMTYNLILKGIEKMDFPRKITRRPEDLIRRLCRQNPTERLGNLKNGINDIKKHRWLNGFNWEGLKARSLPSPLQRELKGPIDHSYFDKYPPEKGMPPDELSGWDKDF
To be noted: read-out: score (%).

Assay [3] has as its target T3, KinomeScan kinase panel (Homo sapiens, UniProt Q86UE8).
T3 construct: purchased DiscoveRx (KinomeScan)
The conditions noted are these: read-out: score (%).

In assay [4] the target is T4, KinomeScan kinase panel (Homo sapiens, UniProt P17612).
T4 construct: purchased DiscoveRx (KinomeScan)
The conditions noted are these: PKAC-alpha, 10 µM; read-out: score (%).

Assay [5] addresses T5, KinomeScan kinase panel (Homo sapiens, UniProt Q6PHR2).
T5 construct: purchased DiscoveRx (KinomeScan)
T5 sequence (Q6PHR2 1-472): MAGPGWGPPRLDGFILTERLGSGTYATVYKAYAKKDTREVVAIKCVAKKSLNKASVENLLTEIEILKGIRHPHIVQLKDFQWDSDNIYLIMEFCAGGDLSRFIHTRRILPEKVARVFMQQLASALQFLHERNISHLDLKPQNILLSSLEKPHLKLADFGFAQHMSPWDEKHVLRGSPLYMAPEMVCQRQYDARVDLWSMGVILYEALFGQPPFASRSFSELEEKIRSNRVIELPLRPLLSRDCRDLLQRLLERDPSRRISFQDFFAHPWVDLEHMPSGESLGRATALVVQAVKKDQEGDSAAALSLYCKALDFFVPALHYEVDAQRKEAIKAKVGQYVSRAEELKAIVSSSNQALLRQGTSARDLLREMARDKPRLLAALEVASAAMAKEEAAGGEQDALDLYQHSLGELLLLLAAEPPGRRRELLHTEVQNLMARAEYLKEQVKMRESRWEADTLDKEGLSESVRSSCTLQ
To be noted: kinase ULK3; 10 µM.

The target in assay [6] is T6, KinomeScan kinase panel (Homo sapiens, UniProt P06241).
T6 construct: purchased DiscoveRx (KinomeScan)
T6 sequence (P06241 whole entry): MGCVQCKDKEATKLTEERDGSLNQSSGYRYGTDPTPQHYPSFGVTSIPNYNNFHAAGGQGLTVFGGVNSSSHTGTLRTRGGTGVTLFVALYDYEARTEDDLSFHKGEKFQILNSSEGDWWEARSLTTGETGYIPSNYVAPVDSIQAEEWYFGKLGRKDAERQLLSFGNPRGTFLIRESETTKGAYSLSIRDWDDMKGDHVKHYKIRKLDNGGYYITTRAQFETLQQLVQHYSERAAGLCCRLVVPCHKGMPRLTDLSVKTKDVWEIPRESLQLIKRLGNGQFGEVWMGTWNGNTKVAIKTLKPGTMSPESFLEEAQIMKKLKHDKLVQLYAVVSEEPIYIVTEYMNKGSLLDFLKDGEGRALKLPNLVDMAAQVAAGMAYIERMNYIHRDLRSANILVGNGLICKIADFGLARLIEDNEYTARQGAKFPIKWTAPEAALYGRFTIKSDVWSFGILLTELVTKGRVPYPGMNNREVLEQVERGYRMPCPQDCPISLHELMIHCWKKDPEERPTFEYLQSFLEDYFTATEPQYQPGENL
To be noted: FYN, 10 µM; read-out: score (%).

Assay [7] has as its target T7, KinomeScan kinase panel (Homo sapiens, UniProt Q13153).
T7 construct: purchased DiscoveRx (KinomeScan)
The conditions noted are these: PAK1, 10 µM; read-out: score (%).

Assay [8] concerns the target T8, KinomeScan kinase panel (Homo sapiens, UniProt Q16513).
T8 construct: purchased DiscoveRx (KinomeScan)
To be noted: PKN2, 10 µM; read-out: score (%).

Assay [9] deals with T9, KinomeScan kinase panel (Homo sapiens, UniProt P09769).
T9 construct: purchased DiscoveRx (KinomeScan)
T9 sequence (P09769 whole entry): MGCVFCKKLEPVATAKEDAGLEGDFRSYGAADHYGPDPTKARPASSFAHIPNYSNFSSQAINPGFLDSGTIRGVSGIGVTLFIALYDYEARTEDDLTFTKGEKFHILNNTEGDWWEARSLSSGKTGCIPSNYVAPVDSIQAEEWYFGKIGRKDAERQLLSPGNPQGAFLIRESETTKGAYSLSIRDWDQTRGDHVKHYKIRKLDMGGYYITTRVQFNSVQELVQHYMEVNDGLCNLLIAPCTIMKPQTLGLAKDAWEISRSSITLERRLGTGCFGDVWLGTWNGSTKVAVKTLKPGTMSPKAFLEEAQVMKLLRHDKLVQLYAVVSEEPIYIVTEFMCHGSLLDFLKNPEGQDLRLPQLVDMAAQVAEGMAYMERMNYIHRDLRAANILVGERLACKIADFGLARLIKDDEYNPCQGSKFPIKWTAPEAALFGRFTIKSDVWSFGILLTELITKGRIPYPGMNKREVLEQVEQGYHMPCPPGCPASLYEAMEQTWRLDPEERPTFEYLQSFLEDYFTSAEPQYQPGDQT
The conditions noted are these: FGR, 10 µM; read-out: score (%).

The target in assay [10] is T10, KinomeScan kinase panel (Homo sapiens, UniProt P52564).
T10 construct: purchased DiscoveRx (KinomeScan)
T10 sequence (P52564 1-334): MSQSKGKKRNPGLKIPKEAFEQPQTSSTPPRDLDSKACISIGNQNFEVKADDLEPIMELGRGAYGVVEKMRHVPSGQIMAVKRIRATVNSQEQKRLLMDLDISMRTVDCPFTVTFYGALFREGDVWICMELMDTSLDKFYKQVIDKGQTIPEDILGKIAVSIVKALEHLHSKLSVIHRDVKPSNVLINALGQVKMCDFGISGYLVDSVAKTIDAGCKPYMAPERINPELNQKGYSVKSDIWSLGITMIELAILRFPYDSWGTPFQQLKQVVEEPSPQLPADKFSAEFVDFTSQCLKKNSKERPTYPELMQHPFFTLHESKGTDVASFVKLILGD
The conditions noted are these: MEK6, 10 µM; read-out: score (%).

Assay [11] has as its target T11, KinomeScan kinase panel (Homo sapiens, UniProt P54764).
T11 construct: purchased DiscoveRx (KinomeScan)
The conditions noted are these: EPHA4, 10 µM; read-out: score (%).

T11 sequence (P54764 20-986): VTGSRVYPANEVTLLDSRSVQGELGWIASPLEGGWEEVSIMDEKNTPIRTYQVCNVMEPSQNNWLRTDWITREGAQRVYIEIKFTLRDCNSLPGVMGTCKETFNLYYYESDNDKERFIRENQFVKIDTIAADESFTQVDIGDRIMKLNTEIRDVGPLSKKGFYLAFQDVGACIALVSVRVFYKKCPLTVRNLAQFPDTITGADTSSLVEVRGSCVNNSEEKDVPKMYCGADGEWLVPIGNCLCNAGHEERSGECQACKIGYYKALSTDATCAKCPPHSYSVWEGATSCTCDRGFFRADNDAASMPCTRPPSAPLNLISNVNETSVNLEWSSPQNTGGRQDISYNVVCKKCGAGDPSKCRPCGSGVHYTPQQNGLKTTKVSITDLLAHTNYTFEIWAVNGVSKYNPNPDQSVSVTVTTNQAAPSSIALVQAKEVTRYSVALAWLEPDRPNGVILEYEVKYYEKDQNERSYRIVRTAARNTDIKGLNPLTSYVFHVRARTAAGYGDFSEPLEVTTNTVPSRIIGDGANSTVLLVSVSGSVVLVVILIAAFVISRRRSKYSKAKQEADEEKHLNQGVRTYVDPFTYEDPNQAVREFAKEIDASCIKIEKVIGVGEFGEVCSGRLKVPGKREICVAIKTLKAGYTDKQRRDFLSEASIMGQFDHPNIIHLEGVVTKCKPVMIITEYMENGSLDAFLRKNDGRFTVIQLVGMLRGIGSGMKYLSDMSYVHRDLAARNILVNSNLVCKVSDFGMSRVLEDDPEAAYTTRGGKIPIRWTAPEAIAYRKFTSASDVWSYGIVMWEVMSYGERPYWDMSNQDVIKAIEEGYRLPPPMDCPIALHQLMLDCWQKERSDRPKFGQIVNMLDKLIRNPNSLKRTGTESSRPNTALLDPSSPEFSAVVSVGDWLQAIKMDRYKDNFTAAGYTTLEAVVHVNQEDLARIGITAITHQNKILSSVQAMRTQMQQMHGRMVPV
T8 sequence (Q16513 whole entry): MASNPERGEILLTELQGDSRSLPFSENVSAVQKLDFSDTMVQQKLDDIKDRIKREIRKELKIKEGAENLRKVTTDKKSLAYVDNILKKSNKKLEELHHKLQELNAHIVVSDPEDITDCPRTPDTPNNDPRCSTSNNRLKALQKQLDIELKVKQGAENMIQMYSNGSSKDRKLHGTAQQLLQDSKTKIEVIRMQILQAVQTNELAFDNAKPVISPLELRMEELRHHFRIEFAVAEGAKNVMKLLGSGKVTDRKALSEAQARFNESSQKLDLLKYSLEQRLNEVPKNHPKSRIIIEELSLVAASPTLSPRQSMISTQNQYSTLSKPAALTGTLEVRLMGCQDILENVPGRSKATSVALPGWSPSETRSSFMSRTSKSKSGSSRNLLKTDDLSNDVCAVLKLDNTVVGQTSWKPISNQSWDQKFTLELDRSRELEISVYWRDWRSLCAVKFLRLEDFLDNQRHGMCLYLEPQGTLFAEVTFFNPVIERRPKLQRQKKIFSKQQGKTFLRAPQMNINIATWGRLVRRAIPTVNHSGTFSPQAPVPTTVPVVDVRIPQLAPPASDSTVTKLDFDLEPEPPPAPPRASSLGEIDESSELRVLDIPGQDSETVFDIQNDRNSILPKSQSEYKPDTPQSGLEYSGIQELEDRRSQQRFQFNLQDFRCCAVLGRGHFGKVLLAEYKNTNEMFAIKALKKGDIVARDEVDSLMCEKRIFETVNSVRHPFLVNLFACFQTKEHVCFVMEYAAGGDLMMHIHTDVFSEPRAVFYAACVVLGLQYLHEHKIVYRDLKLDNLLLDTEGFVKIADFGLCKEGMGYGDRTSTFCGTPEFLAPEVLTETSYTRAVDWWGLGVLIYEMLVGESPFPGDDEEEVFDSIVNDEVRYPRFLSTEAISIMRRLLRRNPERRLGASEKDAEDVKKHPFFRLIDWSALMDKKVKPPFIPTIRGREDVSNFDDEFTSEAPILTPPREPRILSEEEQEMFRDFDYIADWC
T1 sequence (Q8NI60 163-647): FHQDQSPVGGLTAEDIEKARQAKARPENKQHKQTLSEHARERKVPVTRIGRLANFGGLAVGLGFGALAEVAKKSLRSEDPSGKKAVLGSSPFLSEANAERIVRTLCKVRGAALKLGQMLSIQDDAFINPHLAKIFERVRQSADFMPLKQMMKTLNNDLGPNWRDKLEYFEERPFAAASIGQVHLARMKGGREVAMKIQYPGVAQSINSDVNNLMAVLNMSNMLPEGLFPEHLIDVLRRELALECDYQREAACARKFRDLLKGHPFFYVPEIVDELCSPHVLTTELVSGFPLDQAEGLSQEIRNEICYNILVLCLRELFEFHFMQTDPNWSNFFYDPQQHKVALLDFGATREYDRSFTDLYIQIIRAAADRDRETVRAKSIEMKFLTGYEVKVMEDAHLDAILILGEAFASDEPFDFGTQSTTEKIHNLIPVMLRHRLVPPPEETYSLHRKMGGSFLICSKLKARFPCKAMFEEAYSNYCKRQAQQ
T3 sequence (Q86UE8 whole entry): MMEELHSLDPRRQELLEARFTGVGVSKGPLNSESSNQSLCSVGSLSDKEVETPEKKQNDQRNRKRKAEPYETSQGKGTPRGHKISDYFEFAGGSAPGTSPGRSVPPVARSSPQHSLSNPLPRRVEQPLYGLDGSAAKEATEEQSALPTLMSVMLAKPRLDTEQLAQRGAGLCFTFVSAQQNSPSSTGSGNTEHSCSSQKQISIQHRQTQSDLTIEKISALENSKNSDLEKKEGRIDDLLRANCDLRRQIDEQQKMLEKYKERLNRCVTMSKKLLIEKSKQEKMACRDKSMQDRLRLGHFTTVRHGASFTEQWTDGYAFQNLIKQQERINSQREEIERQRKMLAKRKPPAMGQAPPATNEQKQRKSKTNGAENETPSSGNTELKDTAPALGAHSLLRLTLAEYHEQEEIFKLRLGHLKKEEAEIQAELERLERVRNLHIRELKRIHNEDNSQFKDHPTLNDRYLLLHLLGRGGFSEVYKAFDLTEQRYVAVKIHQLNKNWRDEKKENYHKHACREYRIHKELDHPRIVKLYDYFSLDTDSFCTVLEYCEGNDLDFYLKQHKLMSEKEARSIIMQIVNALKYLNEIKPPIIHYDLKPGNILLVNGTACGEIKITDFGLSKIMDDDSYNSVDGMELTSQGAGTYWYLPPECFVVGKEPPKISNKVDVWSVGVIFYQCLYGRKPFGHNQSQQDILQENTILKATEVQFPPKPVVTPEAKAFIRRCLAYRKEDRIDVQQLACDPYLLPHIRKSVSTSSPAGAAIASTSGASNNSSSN
T7 sequence (Q13153 whole entry): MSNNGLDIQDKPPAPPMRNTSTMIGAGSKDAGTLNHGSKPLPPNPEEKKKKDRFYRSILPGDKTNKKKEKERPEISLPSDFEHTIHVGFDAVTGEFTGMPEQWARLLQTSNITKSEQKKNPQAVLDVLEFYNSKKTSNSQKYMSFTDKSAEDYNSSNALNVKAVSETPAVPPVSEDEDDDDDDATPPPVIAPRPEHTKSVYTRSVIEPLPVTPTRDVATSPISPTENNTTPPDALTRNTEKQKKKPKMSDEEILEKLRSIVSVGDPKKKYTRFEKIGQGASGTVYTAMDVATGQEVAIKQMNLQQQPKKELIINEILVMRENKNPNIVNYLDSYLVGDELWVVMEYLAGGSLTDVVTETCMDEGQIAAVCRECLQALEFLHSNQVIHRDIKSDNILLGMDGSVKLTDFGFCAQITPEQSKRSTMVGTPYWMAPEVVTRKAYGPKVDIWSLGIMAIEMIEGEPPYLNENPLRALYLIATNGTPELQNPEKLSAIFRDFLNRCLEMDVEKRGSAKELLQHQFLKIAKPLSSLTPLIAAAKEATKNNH

Take `CCN1CCN(Cc2ccc(NC(=O)c3ccc(C)c(NC(=O)c4cncc(-c5cccs5)c4)c3)cc2C(F)(F)F)CC1` [ALW-II-41-27]: the remaining binding at 10 µM was over 30% on KinomeScan kinase panel [1]; over 30% on KinomeScan kinase panel [2] (PRKG2, 10 µM); over 30% at KinomeScan kinase panel [3] (kinase TLK2, 10 µM); 7.4% on KinomeScan kinase panel [4]; 0.25% at KinomeScan kinase panel [6]; over 30% on KinomeScan kinase panel [7]. The remaining binding at 10 µM was over 30% on KinomeScan kinase panel [8], 0.2% at KinomeScan kinase panel [9], over 30% on KinomeScan kinase panel [10] and 0% on KinomeScan kinase panel [11]. For the same compound, the “score (%)” value at KinomeScan kinase panel [5] is 0.95%.

With `CCN1CCN(Cc2ccc(NC(=O)c3ccc(C)c(/C=C/c4cnc5[nH]ccc5c4Cl)c3)cc2C(F)(F)F)CC1` [HG-6-63-01, (E)-3-(2-(4-chloro-1H-pyrrolo[2,3-b]pyridin-5-yl)vinyl)-N-(4-((4-ethylpiperazin-1-yl)methyl)-3-(trifluoromethyl)phenyl)-4-methylbenzamide], the remaining binding at 10 µM at KinomeScan kinase panel [1] is over 30%; at KinomeScan kinase panel [2] (PRKG2, 10 µM), over 30%; on KinomeScan kinase panel [3] (TLK2, 10 µM) it was over 30%; on KinomeScan kinase panel [4], over 30%; on KinomeScan kinase panel [6], 2.2%; at KinomeScan kinase panel [7] it was over 30%. Further, the remaining binding at 10 µM on KinomeScan kinase panel [8] was 23%; at KinomeScan kinase panel [9], 0.35%; at KinomeScan kinase panel [10], over 30%; on KinomeScan kinase panel [11], 0.55%. In addition, on KinomeScan kinase panel [5], the “score (%)” value was 23%.

With `CCN1CCN(Cc2ccc(NC(=O)c3ccc(C)c(C#Cc4cccnc4)c3)cc2C(F)(F)F)CC1` [XMD15-44], the remaining binding at 10 µM at KinomeScan kinase panel [1] was over 30%; on KinomeScan kinase panel [2] (kinase PRKG2, 10 µM), 97%; on KinomeScan kinase panel [3] (kinase TLK2, 10 µM), 100%; on KinomeScan kinase panel [4], 8.4%; at KinomeScan kinase panel [6], 0.35%; on KinomeScan kinase panel [7], 81%. Moreover, the remaining binding at 10 µM at KinomeScan kinase panel [8] is 36%; on KinomeScan kinase panel [9], 0%; on KinomeScan kinase panel [10] it was over 30%; on KinomeScan kinase panel [11] it was 0%. Besides, at KinomeScan kinase panel [5], the “score (%)” value was 0.25%.
